Results from patent US4999351A, “7-aryl and heteroaryl ethers of desacetylforskolin” (Hoechst-Roussel Pharmaceuticals, Inc., priority 1989, dated 1991).
Counter-ions that a name gives are not always drawn.

system: isolated guinea pig atria; experiment: Inotropic activity: increase in contractile force in isolated guinea pig atria; settings: Cavia porcellus; isolated left atrium, male guinea pig; 50% change of contractile force over the stabilized rate; Kreb's solution, 37° C., 3 Hz stimulation; read-out: Extrapolated ED50 value (concentration increasing contractile force by 50%)
Experimental: The aryl and heteroaryl ethers of desacetylforskolin of the present invention are useful in the treatment of cardiac failure by virtue of their ability to elicit a positive inotropic effect as evidenced by an increase in contractile force in an isolated guinea pig atria assay which is performed as follows: Male guinea pigs weighing 200-300 grams are stunned with a blow to the back of the head. The heart is rapidly removed and placed in a petri dish containing Kreb's solution. The ventricle is separated from the atria, the atria are sectioned in the right and left atria, and double-O silk ligatures are tied to the apex of the left atrium. The atrium is fixed to a pair of platinum plate electrodes and suspended in a 20 ml tissue bath containing Kreb's solution aerated with 95% oxygen-5% carbon dioxide at 37° C. One end of the atrium is fixed to a hook in the electrode and the other end is connected to a Grass FT03 force displacement transducer. Resting tension and stabilization time are the same as described above. The atrium is stimulated at 3 Hz, 0.5 msec duration at supramaximal voltage (constant current) via a Grass S88 stimulator and constant current unit. Force of contraction is continuously displaced on a Gould recorder Test drug is prepared as in section A and is added to the tissue baths in the same fashion. Change in contractile force from baseline is determined for each concentration, and the change in contractile force (g) is plotted against accumulated drug concentration (ug/ml). The activity of the test drug, i.e., the increase in contractile force (g) from the stabilized force expressed as the percentage change at a given concentration is determined graphically, as in the ED50 -value, i.e., the extrapolated does (μg/ml) which increases the contractile force by 50% over the stabilized rate.

Going from C=C[C@@]1(C)CC(=O)[C@]2(O)[C@@]3(C)[C@@H](O)CCC(C)(C)[C@@H]3[C@H](O)[C@H](Oc3ncccn3)[C@@]2(C)O1 [B, 7-Desacetyl-7-(pyrimidin-2-yl)forskolin] to C=C[C@@]1(C)CC(=O)[C@]2(O)[C@@]3(C)[C@@H](O)CCC(C)(C)[C@@H]3[C@H](O)[C@H](OC(C)=O)[C@@]2(C)O1 [Compound C, Forskolin], the EC (50% increase) rises from 0.01 µg/mL to 0.073 µg/mL (7.3-fold).

With C=C[C@@]1(C)CC(=O)[C@]2(O)[C@@]3(C)[C@@H](O)CCC(C)(C)[C@@H]3[C@H](OC(=O)NCCN(C)C)[C@H](Oc3ccccn3)[C@@]2(C)O1 [A, 7-desacetyl-6-(2-dimethylaminoethylaminocarbonyl)-7-(pyridin-2-yl)forskolin hydrochloride hydrate] the EC (50% increase) was 0.009 µg/mL.
